Test results from patent US20220281846A1, “COMPOUNDS AND COMPOSITIONS FOR THE TREATMENT OF RESPIRATORY DISEASES” (THE UNIVERSITY OF MELBOURNE, priority 2018, published 2022).
Several values for one entry are separate records, joined by “and”; a condition that tells them apart may be missing. Identical values can stand only once. Marks after values point to notes of the source that are not given here.

Legend:
[1] = In vivo determination of whole blood-to-plasma ratio; design: species or system male C57BL/6 mice; conditions: mouse blood, 15 min and 1 h post-dose
Experimental: Blood was collected from mice at 15 min and 1 h post-dose of each compound for the purposes of determining the whole blood-to-plasma (B/P) ratio. […] No adverse reactions or compound-related side effects observed in any mice during the 24 h sampling period after dosing any of the compounds. Plasma samples were also taken from 2 mice that were not administered test compound for use as analytical tool.
Analysis of B/P partitioning samples was conducted similarly and quantified against calibration standards samples prepared using a 1:1 v/v mixture of blank mouse blood and plasma. The matrix matched B/P partitioning samples and standards were processed using protein precipitation with acetonitrile as described above.
In Vivo Determination of Whole Blood-to-Plasma Ration
Blood was collected via cardiac puncture (whilst under gaseous isoflurane anaesthesia) into tubes containing heparin and stabilisation cocktail. The haematocrit was determined via centrifugation (13000×g for 4 min using a Clemets® Microhematocrit centrifuge and Safecap® Plain Self-sealing Mylar Wrapped capillary tubes), and values ranged from 38% to 40% for PF670462 and 38% to 44% for ZH3-138. […]
The B/P ratio was obtained by dividing the average measured concentration in blood by the average concentration measured in plasma following centrifugation of whole blood.

[2] = Mouse pharmacokinetics, IV and oral administration; type: in vivo; conditions: male C57BL/6 mice
Experimental: PF670462 (2HCl.0.4 mol. eq. isopropanol) and ZH3-138 (unionised) were administered to male C57BL/6 mice by IV (3 mg/kg) or orally (10 mg/kg). IV administration was achieved by bolus injection into the tail vein of mice using 1 mL syringe with 25G×1″ needle at a volume of 3 mL/kg. Oral administration was achieved by gavage needle at a volume of 3 mL/kg.
Intravenous (IV) and oral formulations were prepared using the same method. On the day of dosing, each of the solid compound was dissolved in DMSO to which an aqueous solution containing 10% Captisol was added. Hydrochloric acid (1 M) was used to modify pH for the formulation of ZH3-138 with the purpose of solubilising the compound (see Section B for the final pH of each formulation). The formulations of each compound were thoroughly vortexed, producing colourless solutions for all three compounds.
The systemic exposure of PF670462 and ZH3-138 was studied in non-fasted male C57BL/6 mice weighing 19.8-26.8 g. Mice had access to food and water ad libitum throughout the pre- and post-dose sampling period.
Compounds were dosed to mice by bolus injection into the lateral tail vein (3 mL/kg) for IV administration and by gavage (3 mL/kg) for oral administration. Following IV and oral administration, blood samples were collected up to 24 h (n=3 mice per time point) with a maximum of three samples from each mouse. Samples were collected via submandibular bleed (approximately 120 μL; conscious sampling). No urine samples were collected as mice were housed in bedded cages.
Blood was collected into polypropylene Eppendorf tubes containing heparin as anticoagulant and stabilisation cocktail (containing Complete® (a protease inhibitor cocktail) and potassium fluoride) to minimise the potential for ex vivo compound degradation in blood/plasma samples.
Once collected, blood samples were centrifuged immediately, supernatant plasma was removed, and stored at −80° C. until analysis by LC-MS.
Plasma samples were quantified against calibration standards prepared by spiking blank mouse plasma (50 μL) with solution standards (10 μL) obtained by diluting a stock solution of test compound (1 mg/mL in DMSO) with 50% acetonitrile in water. Diazepam (10 μL of 5 μg/mL in 50% acetonitrile/water) was added to all plasma calibration standards and samples as an internal standard (IS). The extraction of the test compound and IS from plasma was conducted using protein precipitation with acetonitrile. Protein precipitation was carried out by the addition of acetonitrile followed by vortexing and centrifugation (10,000 rpm) for 3 minutes to obtain supernatant for analysis using the LC-MS conditions described in Table 7.

Nc1nccc(-c2c(-c3ccc(F)cc3)ncn2C2CCCCC2)n1 [PF670462, reference compound]
apparent whole blood-to-plasma ratio (B/P) [1]: 1.0
apparent blood clearance [2]: moderate
apparent blood volume of distribution [2]: moderate
time post-dose for which plasma concentration was measurable (above LLQ) ([2]; 24 h sampling period): up to 4 h
Plasma Concentration, Mean ([2]; IV 2.42 mg/kg, 0.017 h): 15.5 µM
Plasma Concentration, Individual ([2]; IV 2.42 mg/kg, 0.017 h, 2.42 mg/kg): 18.4 µM and 10.9 µM and 17.3 µM
Plasma Concentration, Mean ([2]; IV 2.42 mg/kg, 0.033 h): 8.14 µM
Plasma Concentration, Individual ([2]; IV 2.42 mg/kg, 0.033 h, 2.42 mg/kg): 8.83 µM and 8.03 µM and 7.57 µM
Plasma Concentration, Mean ([2]; IV 2.42 mg/kg, 0.083 h): 6.09 µM
Plasma Concentration, Individual ([2]; IV 2.42 mg/kg, 0.083 h, 2.42 mg/kg): 5.58 µM and 5.99 µM and 6.70 µM
Plasma Concentration, Mean ([2]; IV 2.42 mg/kg, 0.25 h): 2.48 µM
Plasma Concentration, Individual ([2]; IV 2.42 mg/kg, 0.25 h, 2.42 mg/kg): 2.38 µM and 2.32 µM and 2.75 µM
Plasma Concentration, Mean ([2]; IV 2.42 mg/kg, 0.5 h): 0.851 µM
Plasma Concentration, Individual ([2]; IV 2.42 mg/kg, 0.5 h, 2.42 mg/kg): 0.900 µM and 0.566 µM and 1.09 µM
Plasma Concentration, Mean ([2]; IV 2.42 mg/kg, 1.0 h): 0.190 µM
Plasma Concentration, Individual ([2]; IV 2.42 mg/kg, 1.0 h, 2.42 mg/kg): 0.193 µM and 0.165 µM and 0.212 µM
Plasma Concentration, Mean ([2]; IV 2.42 mg/kg, 2.0 h): 0.253 µM
Plasma Concentration, Individual ([2]; IV 2.42 mg/kg, 2.0 h, 2.42 mg/kg): 0.0263 µM and 0.0207 µM and 0.0290 µM
Plasma Concentration, Mean ([2]; IV 2.42 mg/kg, 4.0 h): 0.00209 µM
Plasma Concentration, Individual ([2]; IV 2.42 mg/kg, 4.0 h, values only marginally below the LLQ, 2.42 mg/kg): 0.00222 ^a μM and 0.00134 ^a μM and 0.0027 ^a μM
Plasma Concentration, Mean ([2]; oral 10.1 mg/kg, 0.25 h): 1.25 µM
Plasma Concentration, Individual ([2]; oral 10.1 mg/kg, 0.25 h, 10.1 mg/kg): 1.45 µM and 0.873 µM and 1.44 µM
Plasma Concentration, Mean ([2]; oral 10.1 mg/kg, 0.50 h): 0.941 µM
Plasma Concentration, Individual ([2]; oral 10.1 mg/kg, 0.50 h, 10.1 mg/kg): 1.95 µM and 0.508 µM and 0.366 µM
Plasma Concentration, Mean ([2]; oral 10.1 mg/kg, 1.0 h): 0.292 µM
Plasma Concentration, Individual ([2]; oral 10.1 mg/kg, 1.0 h, 10.1 mg/kg): 0.260 µM and 0.340 µM and 0.277 µM
Plasma Concentration, Mean ([2]; oral 10.1 mg/kg, 2.0 h): 0.103 µM
Plasma Concentration, Individual ([2]; oral 10.1 mg/kg, 2.0 h, 10.1 mg/kg): 0.140 µM and 0.0641 µM and 0.104 µM
Plasma Concentration, Mean ([2]; oral 10.1 mg/kg, 4.0 h): 0.0165 µM
Plasma Concentration, Individual ([2]; oral 10.1 mg/kg, 4.0 h, 10.1 mg/kg): 0.0318 µM and 0.0106 µM and 0.00703 µM
apparent half-life ([2]; plasma): approximately 0.5 h
